Results as given in patent US7972798B2, “Method for identifying diabetic patients at increased risk for pathological complications” (The United States of America as represented by the …, priority 2007, dated 2011).
Entries after “also recorded” stand apart in the source; their conditions may differ.

Experiments:
[1] = tested on: endothelial cells; experiment: F-actin stress fiber formation in endothelial cells (phalloidin staining); format: cell-based, bovine; conditions: co-incubation, 10 uM
Description: For bright field images, the ˜90% confluent endothelial cells in 24-well plates with various treatments were visualized under Zeiss Axiovert 200 inverted microscope with phase contrast 20× dry lens (NA 0.4). Alternatively, the cells cultured in glass-bottom dishes were monitored under transmission light mode (DIC images) with Zeiss LSM510 META confocal microscope with 63×, water immersion lens (NA 1.2). The live cell DIC images of the endothelial cells were captured continuously up to 15 minutes at room temperature at the speed of about 1 frame/min. For fluorescence images, the cells were cultured on glass-bottom dishes for two days before the experiments. At indicated time point after addition of autoantibodies, 10 μM Hoechst dye 33342 (Sigma Inc., St Louis, Mo.) was added into the culture medium for 15 min at 37° C. in a dark chamber. As described previously, the chromatin condensation and fragmentation was visualized with the Zeiss confocal laser scanning microscope using a 63× water immersion objective, with the excitation wavelength set at 351 nm and the emission filter set at 385-470 nm. We used Texas Red-labeled phalloidin to visualize actin stress fibers. First, we aseptically inserted glass coverslips (12-mm diameter) into 24-well tissue culture plate. […]

[2] = tested on: rat pheochromocytoma (PC12) cells; experiment: bFGF-induced neurite outgrowth assay in PC12 cells; format: cell-based
Description: Undifferentiated rat PC12 cells were obtained from American Type Culture Collection (Rockville, Md.) and plated at low density in 60 mm dishes. Three groups of 25-50 cells/dish were counted at baseline and at 3 days and 8 days after the addition of test patient protein-A eluate fractions (1:50 or 1:100 dilutions corresponding to 1-30 ug/mL protein). Neurite outgrowth represents the percentage of PC12 cells expressing more than one neurite. A neurite is defined as a cell process that is at least 2 cell diameters in length. Results represent the mean±SD of triplicate determinations in each test fraction.
Undifferentiated rat PC12 cells obtained from the ATCC were plated at low density. Groups of 25-50 cells/dish were counted at baseline and at 3 and 8 days after exposure to 10 ng/mL basic fibroblast growth factor in the presence or absence of test diabetic plasma IgG fractions and Y27632. Results represent triplicate determinations for each test fraction.

[3] = tested on: Bovine endothelial cells; experiment: Apoptosis assay (Hoechst 33342 / propidium iodide) in endothelial cells; format: cell-based
Description: Apoptosis Assay. Endothelial cells were cultured in 24-well plates to reach ˜90% confluence. Purified IgG was added directly to cultured medium. At 0, 6, 12, 18 and 24 hours, culture media was removed and the cells were incubated in a balanced salt solution (BSS) (140 mM NaCl, 2.8 mM KCl, 2 mM CaCl2, 2 mM MgCl2, 10 mM HEPES, pH 7.2) containing propidium iodide (PI, 25 μg/ml) and Hoechst 33342 (10 μM, Sigma) for 15 min. The cells were examined by Zeiss Axiovert 200M microscope using 20× objective (NA 0.4) for phase contrast, fluorescent blue (Hoechst) and red (PI) images. As a membrane permeable dye, Hoechst stains all nuclei with bright blue, while cell impermeable PI only stains the nuclei in the dying cells, which lost their membrane integrity. Early apoptotic cells whose membranes are still intact present only blue nuclei, but the initiation of DNA fragmentation result in patched labeling of the nuclei by Hoechst (14). Cells entering the late apoptotic stage have bright red condensed chromatin or fragmented nuclei that distinguish them from necrotic ones, which have a uniform red color usually with enlarged nuclei. For each experiment, a minimum of total 400 cells for each duplicated sample were counted from at least five randomly chosen fields and the percentage of total apoptotic cells was obtained by adding early and late apoptotic cells. Each experiment was repeated at least three times.

Molecule: C[C@@H](N)[C@H]1CC[C@H](C(=O)Nc2ccncc2)CC1 [Patient Y27632, Y27632]
- inhibition of autoantibody-induced stress fiber formation [1]: largely inhibited
- restoration of bFGF-induced neurite outgrowth in presence of blocking autoantibodies ([2]; Y27632 1 uM, bFGF 10 ng/mL, autoantibodies from three diabetic patients): completely restored neurite outgrowth
- restoration of bFGF-induced neurite outgrowth in presence of blocking autoantibodies ([2]; co-incubation, concentration not stated): abolished; also recorded: neutralization of inhibition; also recorded: reversal
- restoration of bFGF-induced neurite outgrowth in presence of blocking autoantibodies ([2]; co-incubation, concentration not stated, listed as Y-27632): completely restored
- inhibition of endothelial cell apoptosis from one diabetic IgG fraction ([3]; 10 uM, n=3 experiments): partially inhibited

Molecule: CC(C)[C@H](NC(=O)c1ccc2ccccc2n1)C(=O)N[C@@H](CC(=O)O)C(=O)COc1c(F)cccc1F [Q-VD-OPH]
- block of apoptosis in cells exposed to IgG from patient #2 ([3]; 10 μM, 12 hours): almost completely blocked apoptosis
- block of apoptosis in cells exposed to diabetic plasma IgG ([3]; concentration not given): nearly completely blocked apoptosis

Molecule: bFGF: Recombinant human bFGF from Austral Biologicals
- rescue or prevention of eluate-induced apoptosis ([3]; 100 pg/mL bFGF co-incubated with 4-30 ug/mL active protein-A eluate from 5 of 5 diabetic maculopathy plasmas, preliminary): did not rescue or prevent apoptosis
